Measurements from patent publication US4634707A, “5-Pyrimidinecarboxamides and treatment of leukemia and tumors therewith” (Uniroyal Chemical Company, priority 1984, dated 1987).
“And” between values parts separate entries of the source, which are not always exact repeats. Identical values can stand only once.

Columns and labels:
B16 melanoma = experiment: NCI 3B131, i.p.-implanted B16 melanoma; format: in vivo, murine (mice)
Experimental: (§1) The spectrum of antitumor activity of the compound of Example 1 was determined employing a number of standard National Cancer Institute (NCI) protocols. The antitumor activity was determined in vivo against several different tumors, employing various treatment schedules and routes of administration.
(§2) The ratio of the survival time for the treated animals (T) to the survival time for the control animals (C) determined at varying dosages in the respective in vivo tests is set forth in the table: […]

CD8F1 mammary tumor = experiment: NCI 3CDJ2, s.c.-implanted staged mammary adenocarcinoma CD8F1; format: in vivo, murine (mice); parameters: key to Treated/Control percent: (-): toxic dose
Experimental: as §1, §2

Colon 38 tumor = experiment: NCI 3C872, s.c.-implanted colon 38 carcinoma; format: in vivo, murine (mice); parameters: key to Treated/Control percent: (-): toxic dose
Experimental: as §1, §2

L1210 leukemia [1] = experiment: NCI 3LE31, i.p.-implanted L1210 lymphoid leukemia; format: in vivo, DBA/2 mice
Experimental: as §1
Samples of the test compounds of Examples 1-10 and a number of structurally-related control compounds were tested in accordance with National Cancer Institute test protocol 3LE31 (NCI Protocol 1.100, Cancer Chemotherapy Reports Part 3, Vol. 3, No. 2, September 1972) to determine the effects of the several compounds on i.p.-implanted L1210 leukemia (J. Nat'l. Cancer Inst. 13(5):1328, 1953). Each test involved implantation of the leukemia cells in six DBA/2 mice, one sex per experiment, the male mice weighing a minimum of 18 grams and the female mice weighing a minimum of 17 grams, and all of the test animals being within a three gram weight range. The test compound was administered by i.p. injections, in 0.1 ml. doses of diluted ascitic fluid (10^5 cells per dose), commencing one day after the tumor implant and continuing daily for nine days.
The test animals were weighed and survivors recorded on a regular basis during a thirty day test period. The ratio of survival time for the treated and control animals (T/C) was determined as a percentage.
The tests were carried out at varying dosage levels and with varying numbers of repetitions, depending upon the results obtained with each test compoud. […] A reproducible T/C of 150% or higher is considered significant activity.
The number of mice "cured", viz., those surviving from each animal test group after the thirty day test period, is indicated in parenthesis following the T/C percentage data in Table III below: […]

L1210 leukemia [2] = experiment: NCI 3LE32, s.c.-implanted L1210 leukemia; format: in vivo, murine (mice); parameters: key to Treated/Control percent: (-): toxic dose
Experimental: as §1, §2

L1210 leukemia [3] = experiment: NCI 3LE37, i.c.-implanted L1210 leukemia; format: in vivo, murine (mice); parameters: key to Treated/Control percent: (-): toxic dose
Experimental: as §1, §2

Lewis lung carcinoma = experiment: NCI 3LL39, i.v.-implanted Lewis lung carcinoma; format: in vivo, murine (mice)
Experimental: as §1, §2

M5076 sarcoma = experiment: NCI 3M531, i.p.-implanted M5076 sarcoma; format: in vivo, murine (mice); parameters: key to Treated/Control percent: (-): toxic dose
Experimental: as §1
In three experiments involving the i.p. implanted M5076 sarcoma, maximum ILS values of 72, 72 and 48% were achieved after i.p. treatment on days 1, 5, 9 and 13.
as §2

P388 leukemia = experiment: NCI 3PS31, i.p.-implanted P388 leukemia; format: in vivo, murine (mice); parameters: key to Treated/Control percent: (-): toxic dose
Experimental: as §1, §2

MX-1 mammary tumor = experiment: NCI 3MBG5, s.r.c. human mammary carcinoma MX-1 xenograft; format: in vivo, human tumor xenograft; parameters: key to Treated/Control percent: (-): toxic dose
Experimental: as §1, §2

L1210 leukemia [4] = experiment: Effects of treatment schedule and route of administration against s.c.-implanted L1210 leukemia; format: in vivo
Experimental: The influences of treatment schedule and route of administration on the antitumor activity of the compound of Example 1 were evaluated using the s.c. implanted L1210 leukemia system. The drug was tested in the form of a freeze dried dosage form containing 50 mg. of the compound and 100 mg. N-methylglucamine, reconstituted with 5 ml. of sterile water to yield a 10 mg/ml. solution at about pH 9.5.
The percentage increases in life span (%ILS) are shown in the accompanying drawing for different treatment regimens and routes of administration. […] The highest percent ILS was 471 obtained by daily i.p. injections of the active material on a five day schedule of 45 mg/kg/injection, corresponding to a total dose of 225 mg/kg/duration of the treatment (test C in the drawing). This dosage also gave 5 cures.

[5] = 50 mg/kg, stated jointly for i.p. and s.c. L1210 systems
[6] = i.p. L1210, i.p. days 1-9 (Table I)
[7] = s.c. L1210, i.p. days 1-9 (Table I)

## O=C(Nc1ccccc1)c1c(O)[nH]c(=S)[nH]c1=O [Example 1, 1,2,3,4-tetrahydro-6-hydroxy-4-oxo-N-phenyl-2-thioxo-5-pyrimidinecarboxamide]
B16 melanoma; 6 mg/kg
  Treated/Control percent: 108%
B16 melanoma; 12 mg/kg
  Treated/Control percent: 128%
B16 melanoma; 25 mg/kg
  Treated/Control percent: 137% and 158%
B16 melanoma; 50 mg/kg
  Treated/Control percent: 152% and 169%
B16 melanoma; 100 mg/kg
  Treated/Control percent: 185% and 193%
B16 melanoma; i.p. B16, days 1-9 i.p., optimal values at 100 mg/kg, 100 mg/kg
  increase in life-span (% ILS): 93% and 85%
B16 melanoma; over at least a 4-fold dosage range
  Activity (ILS): 25%
CD8F1 mammary tumor; 56 mg/kg
  Treated/Control percent: 61%
CD8F1 mammary tumor; 112 mg/kg
  Treated/Control percent: 80%
CD8F1 mammary tumor; 225 mg/kg
  Treated/Control percent: (-)
CD8F1 mammary tumor; 450 mg/kg
  Treated/Control percent: (-)
CD8F1 mammary tumor; 900 mg/kg
  Treated/Control percent: (-)
CD8F1 mammary tumor; s.c. implanted CD8F1, experimental conditions employed
  effectiveness (in words): ineffective
Colon 38 tumor; 56 mg/kg
  Treated/Control percent: 70% and 120%
Colon 38 tumor; 225 mg/kg
  Treated/Control percent: 51%
Colon 38 tumor; 450 mg/kg
  Treated/Control percent: (-)
Colon 38 tumor; 900 mg/kg
  Treated/Control percent: (-)
Colon 38 tumor; s.c. implanted colon 38, experimental conditions employed
  effectiveness (in words): ineffective
L1210 leukemia [1]; [5]
  maximum increased life spans: 87-190%
L1210 leukemia [1]; 100 mg/kg
  cures (in words): produced a number of cures at 100 mg/kg
L1210 leukemia [1]; 100 mg/kg i.p. daily for 9 days, i.p. L1210
  curative, share of test mice: at least 50%
L1210 leukemia [1]; 100 mg/kg i.p. daily for 9 days, i.p. system
  toxicity of 100 mg/kg dose: occasionally demonstrated some toxicity
L1210 leukemia [1]; 3LE31, reproducible T/C of 150% or higher is considered significant activity
  activity in i.p.-implanted lymphoid leukemia test (in words): exhibited significant activity
L1210 leukemia [1]; Mus musculus, L1210, ip, 6.25 mg/kg i.p. daily for nine days, read-out: T/C % (survival time treated/control)
  response vs control in vivo at 6.25 mg/kg: 116%
L1210 leukemia [1]; Mus musculus, L1210, ip, 12.5 mg/kg i.p. daily for nine days, read-out: T/C % (survival time treated/control)
  response vs control in vivo at 12.5 mg/kg: 117%
L1210 leukemia [1]; [6]
  cures/total: 4/6 and 6/6
  increase in life-span (% ILS): > 275% and > 229%
L1210 leukemia [2]; 12.5 mg/kg
  Treated/Control percent: 109% and 104%
L1210 leukemia [2]; 25 mg/kg
  Treated/Control percent: 108% and 99%
L1210 leukemia [2]; 50 mg/kg
  Treated/Control percent: 140% and 127%
L1210 leukemia [2]; [5]
  maximum increased life spans: 87-190%
L1210 leukemia [2]; 100 mg/kg
  Treated/Control percent: 300% and 254%
  cures in test at specified dose: 5 and 3
L1210 leukemia [2]; 100 mg/kg i.p. daily for 9 days, s.c. L1210
  curative, share of test mice: at least 50%
L1210 leukemia [2]; 200 mg/kg
  Treated/Control percent: (-)
L1210 leukemia [2]; [7]
  cures/total: 5/6 and 3/6
  increase in life-span (% ILS): > 200% and > 154%
L1210 leukemia [3]; 12.5 mg/kg
  Treated/Control percent: 94% and 106%
L1210 leukemia [3]; 25 mg/kg
  Treated/Control percent: 98%
L1210 leukemia [3]; 50 mg/kg
  Treated/Control percent: 113% and 108%
L1210 leukemia [3]; 100 mg/kg
  Treated/Control percent: 128% and 134%
L1210 leukemia [3]; 100 mg/kg i.p. daily for 9 days
  activity (in words): marginal activity
L1210 leukemia [3]; 200 mg/kg
  Treated/Control percent: (-)
L1210 leukemia [3]; i.c. L1210, 100 mg/kg i.p. daily for 9 days
  increase in life-span (% ILS): 28-34%
Lewis lung carcinoma; 12.5 mg/kg
  Treated/Control percent: 103%
Lewis lung carcinoma; 25 mg/kg
  Treated/Control percent: 106%
Lewis lung carcinoma; 50 mg/kg
  Treated/Control percent: 115%
Lewis lung carcinoma; 100 mg/kg
  Treated/Control percent: 126%
Lewis lung carcinoma; i.v. implanted, experimental conditions employed
  effectiveness (in words): ineffective
M5076 sarcoma; 12.5 mg/kg
  Treated/Control percent: 117%
M5076 sarcoma; 25 mg/kg
  Treated/Control percent: 101% and 130%
M5076 sarcoma; 50 mg/kg
  Treated/Control percent: 124% and 147%
M5076 sarcoma; 100 mg/kg
  Treated/Control percent: 148% and 172%
M5076 sarcoma; 200 mg/kg
  Treated/Control percent: (-)
M5076 sarcoma; i.p. M5076, Days 1-13
  cures/total: 2/10
M5076 sarcoma; i.p. M5076, i.p. treatment on days 1, 5, 9 and 13, maximum values
  increase in life-span (% ILS): 72% and 48%
P388 leukemia; 3.13 mg/kg
  Treated/Control percent: 110%
P388 leukemia; 6.25 mg/kg
  Treated/Control percent: 116%
P388 leukemia; 12.5 mg/kg
  Treated/Control percent: 120%
P388 leukemia; 25 mg/kg
  Treated/Control percent: 145% and 138%
P388 leukemia; 50 mg/kg
  Treated/Control percent: 162% and 194% and 201%
P388 leukemia; 100 mg/kg
  Treated/Control percent: (-)
P388 leukemia; 200 mg/kg
  Treated/Control percent: (-)
P388 leukemia; i.p. P388, 50 mg/kg i.p. daily, five days, maximum values
  increase in life-span (% ILS): 101% and 94% and 62%
P388 leukemia; standard NCI P388 preliminary screen
  activity (in words): good activity
MX-1 mammary tumor; 75 mg/kg
  Treated/Control percent: 98%
MX-1 mammary tumor; 150 mg/kg
  Treated/Control percent: (-)
MX-1 mammary tumor; 300 mg/kg
  Treated/Control percent: (-)
MX-1 mammary tumor; 600 mg/kg
  Treated/Control percent: (-)
MX-1 mammary tumor; s.r.c. xenograft, experimental conditions employed
  effectiveness (in words): ineffective
L1210 leukemia [4]; all treatments and routes, exceptions tests A and G (i.p. and i.v. one day, one injection)
  increases in life span by treatment and route (in words): increases in life span were noted using all treatments and routes of administration save for the i.p. and i.v. one day, one injection treatments
L1210 leukemia [4]; each route and schedule save single treatment i.p. and i.v.
  substantial increases in life span (% ILS): > 25%
L1210 leukemia [4]; highest dose in each schedule, exception test F (i.p. every three hours on days one, five and nine)
  toxicity (in words): toxicity was noted with the highest dose in each treatment schedule except for that involving i.p. administration every three hours on days one, five and nine of a nine day test
L1210 leukemia [4]; test C: daily i.p., five days, 45 mg/kg/injection
  cures: 5
L1210 leukemia [4]; test C: daily i.p., five days, 45 mg/kg/injection, total 225 mg/kg
  increase in life span (% ILS): 471%
L1210 leukemia [4]; test I: oral daily for nine days, 124 mg/kg/injection
  cures: 4
L1210 leukemia [4]; test I: oral daily for nine days, 124 mg/kg/injection, cumulative 1116 mg/kg
  increase in life span (% ILS): 452%
